Each structure is given as a SMILES string.

`CCCOc1ccc(S(=O)(=O)N2CCN(CCOC(C)=O)CC2)cc1-c1nc2c(CCCF)cn(CC)c2c(=O)[nH]1` [Example 19, 2-{5-[4-(2-Acetoxyethyl)piperazin-1-ylsulfonyl]-2-n-propoxyphenyl}-5-ethyl-7-(3-fluoropropyl)-3,5-dihydro-4H-pyrrolo[3,2-d]pyrimidin-4-one] had a melting point of 134 to 135 °C. In turn, `CCCc1cn(C)c2c(=O)[nH]c(-c3cc(S(=O)(=O)N4CCN(CCCOC(C)=O)CC4)ccc3OCC)nc12` [Example 6, 2-{5-[4-(3-Acetoxypropyl)piperazin-1-ylsulfonyl]-2-ethoxyphenyl}-5-methyl-7-n-propyl-3,5-dihydro-4H-pyrrolo[3,2-d]pyrimidin-4-one] gave a melting point of 157 to 158.5 °C. `CCCOc1ccc(S(=O)(=O)N2CCN(CCOC(=O)C(C)C)CC2)cc1-c1nc2c(CCC)cn(CC)c2c(=O)[nH]1` [Example 14, 5-Ethyl-2-{5-[4-(2-isobutyryloxyethyl)piperazin-1-ylsulfonyl]-2-n-propoxyphenyl}-7-n-propyl-3,5-dihydro-4H-pyrrolo[3,2-d]pyrimidin-4-one]: the melting point lay in the range of 88 to 89 °C. Turning to `CCCOc1ccc(S(=O)(=O)N2CCN(CCOC(=O)CC)CC2)cc1-c1nc2c(CCC)cn(CC)c2c(=O)[nH]1` [Example 10, 5-Ethyl-2-{5-[4-(2-propionyloxyethyl)piperazin-1-ylsulfonyl]-2-n-propoxyphenyl}-7-n-propyl-3,5-dihydro-4H-pyrrolo[3,2-d]pyrimidin-4-one], the melting point was in the range of 126.5 to 127.5 °C. The molecule `CCCOc1ccc(S(=O)(=O)N2CCN(CCOC(=O)c3ccccc3)CC2)cc1-c1nc2c(CCC)cn(CC)c2c(=O)[nH]1` [Example 16, 2-{5-[4-(2-Benzoyloxyethyl)piperazin-1-ylsulfonyl]-2-n-propoxyphenyl}-5-ethyl-7-n-propyl-3,5-dihydro-4H-pyrrolo[3,2-d]pyrimidin-4-one] gave a melting point of 78 to 79 °C.

For the molecule `CCCOc1ccc(S(=O)(=O)N2CCN(CCOC(C)=O)CC2)cc1-c1nc2c(CCC)cn(CC)c2c(=O)[nH]1` [Example 7, 2-{5-[4-(2-Acetoxyethyl)piperazin-1-ylsulfonyl]-2-n-propoxyphenyl}-5-ethyl-7-n-propyl-3,5-dihydro-4H-pyrrolo[3,2-d]pyrimidin-4-one], the melting point fell in the range of 139 to 140 °C. With `CCCOc1ccc(S(=O)(=O)N2CCN(CCOC(=O)OCC)CC2)cc1-c1nc2c(CCC)cn(CC)c2c(=O)[nH]1` [Example 17, 2-{5-[4-(2-Ethoxycarbonyloxyethyl)piperazin-1-ylsulfonyl]-2-n-propoxyphenyl}-5-ethyl-7-n-propyl-3,5-dihydro-4H-pyrrolo[3,2-d]pyrimidin-4-one], the melting point is 135 to 136 °C.

Consider `CCCOc1ccc(S(=O)(=O)N2CCN(CCOC(=O)CCC)CC2)cc1-c1nc2c(CCC)cn(CC)c2c(=O)[nH]1` [Example 12, 2-{5-[4-(2-Butyryloxyethyl)piperazin-1-ylsulfonyl]-2-n-propoxyphenyl}-5-ethyl-7-n-propyl-3,5-dihydro-4H-pyrrolo[3,2-d]pyrimidin-4-one], for which the melting point lay in the range of 71.5 to 73 °C.

By melting point is commonly meant the temperature of the solid-liquid transition.

The values are drawn from patent US20050130983A1, “Pyrrolopyrimidinone derivatives, process for preparation thereof, and method of using and composition comprising them” (priority 2002, published 2005).
